Results as given in patent US20110183995A1, “ELTOPRAZINE FOR SUPPRESSION OF L-DOPA INDUCED DYSKINESIAS” (Neurosearch A/S, priority 2008, published 2011).

Tests used:
[1] = test system: 6-OHDA-lesioned rats; test: Antidyskinetic effect of Eltoprazine in the rat 6-OHDA model (L-DOPA-induced dyskinesia, total AIM score); format: in vivo; details: for reduction of dyskinesia (total score: limb, axial and orolingual): compared to the control L-DOPA-only treated group, two-hour test
Experimental: In this experiment we determined the antidyskinetic properties of Eltoprazine.
6-OHDA-lesioned rats were made dyskinetic and allocated into three well-balanced groups (n=6 per group), which were challenge on the day of the experiments with L-DOPA-only, L-DOPA plus Eltoprazine 0.1 mg/kg or L-DOPA plus Eltoprazine 0.3 mg/kg, respectively.
Limb, axial and orolingual dyskinesias were scored over the tow-hour test and the sum is reported here as the total score, and the results are presented in FIG. 4.

[2] = test system: PD patients; details: large phase III clinical trial, terminated; cited from earlier work

c1cc2c(c(N3CCNCC3)c1)OCCO2 [Eltoprazine, 1-(2,3-Dihydro-benzo[1,4]dioxin-5-yl)piperazine]
reduction of dyskinesia (total score: limb, axial and orolingual) ([1]; Eltoprazine 0.1 mg/kg plus L-DOPA): approximately 50%
reduction of dyskinesia (total score: limb, axial and orolingual) ([1]; Eltoprazine 0.3 mg/kg plus L-DOPA): near-complete abolishment
suppression of L-DOPA-induced dyskinesia ([1]; rats, higher dose alone): near-complete suppression

Fc1ccc(-c2cncc(CNC[C@H]3CCc4ccccc4O3)c2)cc1 [Sarizotan]
clinical antidyskinetic efficacy [2]: lack of efficacy
